The text below walks through data of patent US7202068B2, “Enone reductase and methods of making and using thereof” (priority 2002, dated 2007).

Common to all, as to assay type: biochemical, Candida kefyr (Candida macedoniensis) IFO 0960
The subject of experiment [1] is enone reductase. In words: Substrate specificity of the enone reductase (standard enzyme assay with various substrates). To be noted: 0.05% final concentration, 30° C.; for Relative Activity (%): as substrate, ketoisophorone = 100. The method, then: (§1) The standard enzyme assay was performed as follows: a total volume of 1 ml of the basal reaction mixture (200 μl of 1 M Tris-HCl buffer pH 7.5, 100 μl of 80 mM NADH or NADPH, 100 μl of 0.658 M ketoisophorone, 600 μl H2O) was supplemented by 5 μl of the enzyme solution and incubated at 40° C. One unit of the enzyme activity was defined as the amount of the enzyme, which catalyzes the […] of 1 μmol of ketoisophorone per minute. The reaction mixture was extracted by 1 ml of ethylacetate to recover the levodione into the ethylacetate layer. The extract was analyzed by gas chromatography [column: ULBON HR-20M (Shinwa, Japan) 0.25 mmφ×30 m, column temperature: 160° C. (constant), injector temperature: 250° C., carrier gas: He (ca. 1 ml/min)]. The protein concentration was determined by using a Bio-Rad protein assay kit (Bio-Rad, USA).
Substrate specificity of the enzyme was determined by using the same enzyme assay method as described above under (1), except that various substrate solutions (0.05% final concentration in the reaction mixture) were used instead of ketoisophorone, and the reaction was done at 30° C. The relative activity (%) of different substrates is compared in Table 1, showing the best result with 3-butene-2-one.

The subject of experiment [2] is enone reductase. In words: Effect of metal ions and other compounds on the enzyme activity.
For experiment [3], the system named is enone reductase. In words: Cofactor requirement of the enzyme to convert ketoisophorone to levodione. As for the experimental part:
as §1
The cofactor requirement of the enzyme to convert ketoisophorone to levodione was investigated.

Where [4] appears, read: compound added, final concentration of metal 1 mM, substrate 2-cyclohexen-1-one, None = 100.
Setting [5] is: final concentration of metal 1 mM, substrate 2-cyclohexen-1-one.

Read-outs that look alike come from different tables or passages of the source.

Turning to `O=[N+]([O-])C1=CCCCC1` [1-Nitro-1-cyclohexen], the “Relative Activity (%)” value with enone reductase [1] was found to be 373.8%.
On the same count and under the same terms, with `O=C1C=CCCC1` [2-Cyclohexen-1-one] the figure was 252.1%.
Consider `C=CC(C)=O` [3-Butene-2-one], for which, in the experiment on enone reductase [1], the “relative activity of different substrates (in words)” value is listed as “best result” and the “Relative Activity (%)” value was determined as 403.3%.
On to `O=[N+]([O-])[O-].[Ag+]` [AgNO3], for which, in the experiment on enone reductase [2], the “Relative Activity (%)” value is 49.1% and the “inhibition of the enzyme activity (in words)” value (shortened to “inhibition”) was “inhibited the enzyme activity moderately”.
With `O=S(=O)([O-])[O-].[Be+2]` [BeSO4], the “Relative Activity (%)” value in the experiment with enone reductase [2] is 80.9%.
Consider `[Ca+2].[Cl-].[Cl-]` [CaCl2], for which the “Relative Activity (%)” value with enone reductase [2] is reported as 108%.
Same read-out and setting: with `[Cl][Cd][Cl]` [CdCl2] the figure was 104%.
With `O=CC=Cc1ccccc1` [Cinnamaldehyde], in the experiment on enone reductase [1], the “Relative Activity (%)” value is on record as 216.7%.
For `O=S(=O)([O-])[O-].[Cu+2]` [CuSO4], in the experiment with enone reductase [2], the “Relative Activity (%)” value is reported as 55.9% and the “inhibition” value was “inhibited the enzyme activity moderately”.
Take `O=C(O)CN(CCN(CC(=O)O)CC(=O)O)CC(=O)O` [EDTA]: the “Relative Activity (%)” value with enone reductase [2] is on record as 110%.
`N=C(N)N` [Guanidine]: in the experiment with enone reductase [2] (setting [4]), the “Relative Activity (%)” value turned out to be 61.1%. In the experiment on enone reductase [2] (setting [5]), the “inhibition” value is “inhibited the enzyme activity moderately”.
As to `[Cl][Hg][Cl]` [HgCl2], in the experiment with enone reductase [2] (setting [4]), the “Relative Activity (%)” value stood at 40.8%. Also, the “inhibition” value with enone reductase [2] (setting [5]) is “inhibited the enzyme activity moderately”.
As to `O=C(O)CI` [Iodoacetate], the “Relative Activity (%)” value with enone reductase [2] is listed as 93.6%.
Still for that read-out and setting: with `[Cl-].[K+]` [KCl] the figure was 103%.
For the molecule `CC1=CC(=O)CC(C)(C)C1=O` [Ketoisophorone, 2,6,6-trimethyl-2-cyclohexene-1,4-dione], in the experiment on enone reductase [1], the “Relative Activity (%)” value is reported as 100%.
On to `[Cl-].[Li+]` [LiCl], for which the “Relative Activity (%)” value in the experiment with enone reductase [2] (setting [4]) is given as 104%.
In the case of `[Cl-].[Cl-].[Mg+2]` [MgCl2], the “Relative Activity (%)” value in the experiment on enone reductase [2] turned out to be 111%.
The same measure, in the same setting: with `[Cl][Mn][Cl]` [MnCl2] the figure was 94.6%.
On to `NC(=O)C1=CN([C@@H]2O[C@H](COP(=O)(O)OP(=O)(O)OC[C@H]3O[C@@H](n4cnc5c(N)ncnc54)[C@H](O)[C@@H]3O)[C@@H](O)[C@H]2O)C=CC1` [NADH], for which the “serves as co-factor for the reductive reaction” value in the experiment with enone reductase [3] is “could serve as a co-factor”.
Consider `NC(=O)C1=CN([C@@H]2O[C@H](COP(=O)(O)OP(=O)(O)OC[C@H]3O[C@@H](n4cnc5c(N)ncnc54)[C@H](OP(=O)(O)O)[C@@H]3O)[C@@H](O)[C@H]2O)C=CC1` [NADPH], for which the “serves as co-factor for the reductive reaction” value in the experiment with enone reductase [3] was “could serve as a co-factor”.
With `[NH4+].[O]=[V](=[O])[O-]` [NH4VO3], in the experiment on enone reductase [2], the “Relative Activity (%)” value is given as 9.6% and the “inhibition” value is “inhibited the enzyme activity moderately”.
Turning to `[Cl-].[Na+]` [NaCl], in the experiment with enone reductase [2], the “Relative Activity (%)” value came out at 108%.
As for `[F-].[Na+]` [NaF], the “Relative Activity (%)” value in the experiment with enone reductase [2] is 101%.
As for `N#C[S-].[Na+]` [NaSCN], in the experiment on enone reductase [2], the “Relative Activity (%)” value is 93.6%.
Same read-out and setting: with `[Cl][Ni][Cl]` [NiCl] the figure was 108%.
As to `O=[N+]([O-])[O-].O=[N+]([O-])[O-].[Pb+2]` [Pb(NO3)2], in the experiment with enone reductase [2], the “Relative Activity (%)” value came to 0% and the “inhibition” value is on record as “inhibited the enzyme activity strongly”.
`[Cl-].[Rb+]` [RbCl]: in the experiment with enone reductase [2], the “Relative Activity (%)” value came to 107%.
In the case of `C[n+]1c2cc(N)ccc2cc2ccc(N)cc21.[Cl-]` [Trypaflavine], in the experiment on enone reductase [2], the “Relative Activity (%)” value was found to be 0% and the “inhibition” value is listed as “inhibited the enzyme activity strongly”.
Consider `O=S(=O)([O-])[O-].[Zn+2]` [ZnSO4], for which the “Relative Activity (%)” value in the experiment with enone reductase [2] amounted to 101%.
On the same count and under the same terms, the result for CoCl2 reads 113%.
In the case of R-(−)-Carvone, in the experiment on enone reductase [1], the “Relative Activity (%)” value was 56.3%.
